Data on 4 compounds can be found in ChEMBL document CHEMBL1909046, “DrugMatrix in vitro pharmacology data”.

In one experiment the target is T1, Cytochrome P450 1A2 (Homo sapiens, UniProt P05177).
T1 sequence (P05177 whole entry): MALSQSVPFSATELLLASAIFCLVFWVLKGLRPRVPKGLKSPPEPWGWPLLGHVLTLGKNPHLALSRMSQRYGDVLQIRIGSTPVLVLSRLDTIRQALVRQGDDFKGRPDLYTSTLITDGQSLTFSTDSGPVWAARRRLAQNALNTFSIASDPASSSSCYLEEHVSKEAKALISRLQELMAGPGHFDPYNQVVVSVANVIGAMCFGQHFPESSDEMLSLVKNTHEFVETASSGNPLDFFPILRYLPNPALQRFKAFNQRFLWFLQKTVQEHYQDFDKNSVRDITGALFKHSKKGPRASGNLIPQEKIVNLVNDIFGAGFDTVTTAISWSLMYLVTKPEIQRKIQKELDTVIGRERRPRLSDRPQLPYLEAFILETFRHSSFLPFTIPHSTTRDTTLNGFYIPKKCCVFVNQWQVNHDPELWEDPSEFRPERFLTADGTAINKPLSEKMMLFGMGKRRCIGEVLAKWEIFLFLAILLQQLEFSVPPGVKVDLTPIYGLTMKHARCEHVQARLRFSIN

Another experiment has as its target T2, Estrogen receptor (Homo sapiens, UniProt P03372).
T2 sequence (P03372 whole entry): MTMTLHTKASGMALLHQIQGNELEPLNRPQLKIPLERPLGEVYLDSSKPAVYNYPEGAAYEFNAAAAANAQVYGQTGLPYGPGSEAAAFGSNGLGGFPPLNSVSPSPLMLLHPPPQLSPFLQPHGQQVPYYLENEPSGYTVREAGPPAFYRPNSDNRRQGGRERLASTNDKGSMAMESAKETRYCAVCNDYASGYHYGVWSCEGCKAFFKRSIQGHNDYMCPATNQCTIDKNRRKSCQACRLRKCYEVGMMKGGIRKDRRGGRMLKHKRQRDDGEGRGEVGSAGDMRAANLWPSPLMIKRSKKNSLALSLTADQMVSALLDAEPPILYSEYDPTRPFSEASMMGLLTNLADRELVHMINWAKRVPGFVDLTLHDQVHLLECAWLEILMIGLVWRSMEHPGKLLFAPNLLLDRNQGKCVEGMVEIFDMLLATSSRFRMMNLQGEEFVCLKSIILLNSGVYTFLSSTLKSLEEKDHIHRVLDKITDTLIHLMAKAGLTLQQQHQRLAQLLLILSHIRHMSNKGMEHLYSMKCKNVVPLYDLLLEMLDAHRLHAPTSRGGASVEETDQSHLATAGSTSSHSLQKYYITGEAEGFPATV
Kind of experiment: biochemical.

The next experiment deals with Cytochrome P450 2C9 (Homo sapiens, UniProt P11712).
Cytochrome P450 2C9, sequence (P11712 whole entry): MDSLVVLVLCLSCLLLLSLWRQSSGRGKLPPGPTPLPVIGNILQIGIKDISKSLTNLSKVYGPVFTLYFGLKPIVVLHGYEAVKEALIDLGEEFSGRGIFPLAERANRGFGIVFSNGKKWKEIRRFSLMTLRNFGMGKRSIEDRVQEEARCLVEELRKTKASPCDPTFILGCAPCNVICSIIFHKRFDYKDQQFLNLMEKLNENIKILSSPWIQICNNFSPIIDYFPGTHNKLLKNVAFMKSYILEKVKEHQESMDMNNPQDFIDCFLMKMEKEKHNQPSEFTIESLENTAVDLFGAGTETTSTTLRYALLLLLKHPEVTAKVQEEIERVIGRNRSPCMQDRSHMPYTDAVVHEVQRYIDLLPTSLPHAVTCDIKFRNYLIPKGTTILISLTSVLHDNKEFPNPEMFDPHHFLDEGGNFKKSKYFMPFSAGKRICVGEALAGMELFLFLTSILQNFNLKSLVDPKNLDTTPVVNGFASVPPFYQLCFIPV

In turn, `Cc1[nH]cnc1CN1CCc2c(c3ccccc3n2C)C1=O` [ALOSETRON] registered an IC50 at Cytochrome P450 1A2 of 605 nM. At Estrogen receptor, `CCCCCCCCCc1ccc(O)cc1` [4-NONYLPHENOL] gave a concentration for half-maximal inhibition (IC50) of 377 nM and a Ki of 108 nM. In the case of `c1ccc2c(c1)cc1ccc3cccc4ccc2c1c34`, on Cytochrome P450 1A2, half-maximal inhibition (IC50) was put at 40 nM. `O=C1CCc2cc(OCCCCc3nnnn3C3CCCCC3)ccc2N1` [CILOSTAZOL] came in with a half-maximal inhibitory concentration (IC50) on Cytochrome P450 2C9 of 10000 nM. This lies in the double-digit micromolar range.

One may read the IC50 as the point on the concentration scale where inhibition reaches its midpoint. One may read the Ki as a measure of affinity in units of concentration, obtained from inhibition or displacement. High values mean weaker binding, low ones tighter binding.
